Results taken from patent US20130053357A1, “SKIN IRRITATION SUPPRESSANT AND TRANSDERMAL PREPARATION” (HISAMITSU PHARMACEUTICAL CO., INC., priority 2010, published 2013).
Structures can show the parent of a compound that is named as a salt. Where two headings read alike, the source gives them in different places.

Tests used:
[1] = system: human three-dimensional culture epidermal model (LabCyte EPI-MODEL); test: Production of skin irritation mediators induced by PMA in human three-dimensional epidermal culture model (Experiment 1); type: cell-based; conditions: for activity at 0.01 % / activity at 0.1 % / activity at 1 %: Homo sapiens, 48 hours; for activity at 0.01 %: test substance 0.01 mass % with PMA in olive oil; for Effect on skin irritation mediator production by PMA (in words): summary of Table 1; for activity at 0.1 %: test substance 0.1 mass % with PMA in olive oil; for activity at 1 %: test substance 1 mass % with PMA in olive oil
Text: Changes in production amounts of skin irritation mediators by test substances were examined when cutaneous irritants were caused to act on a human three-dimensional culture epidermal model.
(§1) A human three-dimensional epidermal culture model obtained by multilayer-culturing a human normal epidermal cell (LabCyte EPI-MODEL, manufactured by Japan Tissue Engineering Co., Ltd.) was used. LabCyte is a cultured skin cultured in a transwell. For the experiment, LabCyte was used with the transwell.
As test substances, there were used cholesterol (manufactured by Wako Pure Chemical Industries, Ltd.), β-sitosterol (manufactured by TAMA BIOCHEMICAL CO., LTD.), α-spinasterol (manufactured by ChromaDex, Inc.), ergosterol (manufactured by Wako Pure Chemical Industries, Ltd.), campesterol (manufactured by TAMA BIOCHEMICAL CO., LTD.), glycyrrhizin (manufactured by Wako Pure Chemical Industries, Ltd.), glycyrrhetinic acid (manufactured by Wako Pure Chemical Industries, Ltd.), ginsenoside (manufactured by Wako Pure Chemical Industries, Ltd.), squalene (manufactured by Wako Pure Chemical Industries, Ltd.), squalane (manufactured by Tokyo Chemical Industry Co., Ltd.) and lanosterol (manufactured by ChromaDex, Inc.), which are candidates of a skin irritation suppressant.
As skin irritants, Phorbol 12-Myristate 13-Acetate (PMA, manufactured by Wako Pure Chemical Industries, Ltd.) was used. In addition, as vehicle, olive oil (manufactured by Wako Pure Chemical Industries, Ltd.) was used.
Experiments were conducted by the following group composition. • PMA Only Group: A group with addition of only 0.00001 mol of PMA dispersed in a vehicle, as a test solution. • Test Substance Group: A group with addition of 0.00001 mol of PMA and the test substance which were dispersed in a vehicle, as a test solution.
(§2) The experiment was conducted as below. First, LabCyte was put into a 24-well assay plate. Then, 1 ml of assay medium (Japan Tissue Engineering Co., Ltd.) was added so that it was brought into contact with a bottom surface of the cultured skin in each well of the 24-well assay plate, and was pre-cultured in an incubator with 5% of carbon dioxide concentration at 37° C. for 1 hour.
Next, a cell survival rate was measured by the MTT method after causing the test solutions of each group to act. Specifically, 50 μL of the test solution of each group was added to the surface of the LabCyte after preculture, was cultured in the incubator with 5% of carbon dioxide concentration at 37° C. for 48 hours, then was transferred to the assay medium comprising 0.5 mg/ml of MTT reagent, and was cultured in the incubator with 5% of carbon oxide level at 37° C. for 3 hours. Then, LabCyte was immersed in 0.3 ml of an isopropanol solution, and the produced blue-purple formazan was extracted for 2 hours. After extraction, an absorbance at 570 nm was measured by a 96 microplate reader. The cell survival rate was calculated as below.
Cell survival rate (%)=(absorbance of Test Substance Group)/(absorbance of PMA Only Group)×100
Subsequently, a production amount of the skin irritation mediator at a test substance concentration with 80% or more of cell survival rate was measured. As skin irritation mediators, PGE2, IL-1α, IL-6, IL-8 were measured.
(§3) The test solutions of each group were added to the cells, the culture solutions incubated for 48 hours were collected, and a production amount of each skin irritation mediator was measured. The skin irritation mediator was measured by using a commercially available ELISA kit (manufactured by R&D Systems, Inc.). A relative production amount of the skin irritation mediator in each test substance was calculated as below, when the production amount of the skin irritation mediator in the PMA Only Group was set to 100.
Relative production amount=(production amount of the mediator in Test Substance Group)/(production amount of the mediator in PMA Only Group)×100

[2] = system: croton oil-induced mouse ear swelling; test: Suppression of croton oil-induced mouse ear swelling reaction (Experiment 3); type: in vivo; conditions: for Inhibition Ratio Of Ear Swelling: ddY female mouse, 1% by mass of test substance in 2% croton oil solution, 25 μL on ears, auricular thickness 6 hours after; for Effect on croton oil-induced mouse ear swelling reaction (in words): summary of Table 3
Text: <Suppression of Croton Oil-Induced Mouse Ear Swelling Reaction by the Test Substances>
Suppression of mouse ear swelling was examined through the use of croton oil (Wako Pure Chemical Industries, Ltd.) as a swelling inducer. A 7-week-old ddY female mouse (SPF) was subjected to an experiment. As test substances, cholesterol, glycyrrhizin, glycyrrhetinic acid, squalene, ergosterol, squalane and lanosterol were used. As a vehicle, acetone (Wako Pure Chemical Industries, Ltd.) was used.
Experiments were conducted by the following group composition. • Positive Control Group: A group which received only the vehicle as a primary test solution, and one hour after, received a 2% croton oil solution as a secondary test solution. • Test Substance Group: A group in which only the vehicle was administered as a primary test solution, and one hour after, a 2% croton oil solution including 1% by mass of test substance was administered as a secondary test solution.
An inhibition ratio of ear swelling was calculated as below. In this test, a […] inflammation model is used to examine immediate swelling reactions. In accordance with the group composition, 25 μL of the primary test solution was uniformly coated on back sides of both ears in an etherize mouse, and one hour after, 25 μL of the secondary test solution was uniformly coated in accordance with the group composition. Prior to coating of the secondary test solution, a thickness of auricle was measured by DIAL […] GAUGE (OZAKI MFG CO., LTD.). Furthermore, the secondary test solution was administered, and 6 hours after, the auricular thickness was measured in the same way as mentioned above, and an increased amount of the auricular thickness was set by deducting the thickness measured prior to administration of the secondary test solution. The inhibition ratio of ear swelling was calculated as below.
Inhibition ratio of ear swelling (%)=(increased amount of auricular thickness in Test Substance Group−increased amount of auricular thickness in Negative Control Group)/(increased amount of auricular thickness in Positive Control Group−increased amount of auricular thickness in Negative Control Group)×100

[3] = system: human three-dimensional culture epidermal model (LabCyte EPI-MODEL); test: Suppression by cholesterol of skin irritation mediator production induced by asenapine and LADA in a human epidermal cell (Experiment 6); type: cell-based; conditions: without or with 1% by mass of cholesterol
Experimental: as §1, §2, §3
Cholesterol was used as a test substance. Asenapine and lauric acid diethanolamide (LADA) were used as the cutaneous irritants.
Tests were conducted by the following group composition. • Solvent Group: A group including only vehicle. Olive oil was used as a vehicle. • Skin Irritant Only Group: A group with addition of only cutaneous irritant dispersed in a vehicle, as a test solution. The concentration of asenapine maleate to be added was 0.6% (asenapine group), and that of LADA was 0.03% (LADA group). • Skin Irritant Plus Cholesterol Group: A group with addition of the drug and 1% by mass of cholesterol which were dispersed in a vehicle, as a test solution.
The experiment was conducted while other conditions were set in the same manner as Experiment 1.

[4] = read-out: Relative Production Amount of Skin Irritation Mediator when Production Amount in PMA Only Group is Set to 100: IL-1α
[5] = read-out: Relative Production Amount of Skin Irritation Mediator when Production Amount in PMA Only Group is Set to 100: IL-6
[6] = read-out: Relative Production Amount of Skin Irritation Mediator when Production Amount in PMA Only Group is Set to 100: IL-8
[7] = read-out: Relative Production Amount of Skin Irritation Mediator when Production Amount in PMA Only Group is Set to 100: PGE2
[8] = asenapine maleate 0.6% in olive oil

| Compound | activity at 0.01 % [1, 4] [%] | activity at 0.01 % [1, 5] [%] | activity at 0.01 % [1, 6] [%] | activity at 0.01 % [1, 7] [%] | Effect on skin irritation mediator production by PMA (in words) [1] | Inhibition Ratio Of Ear Swelling [2] [%] | Effect on croton oil-induced mouse ear swelling reaction (in words) [2] | other results |
| --- | --- | --- | --- | --- | --- | --- | --- | --- |
| CC1(C)[C@@H](O)CC[C@]2(C)[C@H]3C(=O)C=C4[C@@H]5C[C@@](C)(C(=O)O)CC[C@]5(C)CC[C@@]4(C)[C@]3(C)CC[C@@H]12 [Glycyrrhetinic Acid, glycyrrhetinic acid] | 77 | 46 | 81 | 48 | exhibited effects of suppressing the skin irritation mediator production by PMA | 53.4 | suppress croton oil-induced mouse ear swelling reaction |  |
| CN1CC2c3ccccc3Oc3ccc(Cl)cc3C2C1 (stereo not drawn) [Asenapine, asenapine maleate] |  |  |  |  |  |  |  | Production Amount of Skin Irritation Mediator: IL-1A [3, 8]: 17.24 pg/mL; Production Amount of Skin Irritation Mediator: IL-6 [3, 8]: 0.00 pg/mL; Production Amount of Skin Irritation Mediator: IL-8 [3, 8]: 174.90 pg/mL; Production Amount of Skin Irritation Mediator: PGE2 [3, 8]: 125.85 pg/mL; Production Amount of Skin Irritation Mediator: TNFA [3, 8]: 0.00 pg/mL |
| CC(C)=CCC/C(C)=C/CC/C(C)=C/CC/C=C(\C)CC/C=C(\C)CCC=C(C)C [Squalene, squalene] | 10 | 0 | 131 | 88 | exhibited effects of suppressing the skin irritation mediator production by PMA | 44.4 | suppress croton oil-induced mouse ear swelling reaction |  |
| CC(C)CCCC(C)CCCC(C)CCCCC(C)CCCC(C)CCCC(C)C (stereo not drawn) [Squalane, squalane] |  |  |  |  | exhibited effects of suppressing the skin irritation mediator production by PMA | 61.6 | suppress croton oil-induced mouse ear swelling reaction | activity at 0.1 % [1, 4]: 18%; activity at 0.1 % [1, 5]: 55%; activity at 0.1 % [1, 6]: 39%; activity at 0.1 % [1, 7]: 41% |
| CC1(C)[C@@H](O[C@H]2O[C@H](C(=O)O)[C@@H](O)[C@H](O)[C@H]2O[C@@H]2O[C@H](C(=O)O)[C@@H](O)[C@H](O)[C@H]2O)CC[C@]2(C)[C@H]3C(=O)C=C4[C@@H]5C[C@@](C)(C(=O)O)CC[C@]5(C)CC[C@@]4(C)[C@]3(C)CC[C@@H]12 [Glycyrrhizin, glycyrrhizin] | 85 | 105 | 154 | 114 | exhibited effects of suppressing the skin irritation mediator production by PMA | 34.1 | suppress croton oil-induced mouse ear swelling reaction |  |
| CC(C)[C@@H](C)/C=C/[C@@H](C)[C@H]1CC[C@H]2C3=CC=C4C[C@@H](O)CC[C@]4(C)[C@H]3CC[C@]12C [Ergosterol, ergosterol] |  |  |  |  | exhibited effects of suppressing the skin irritation mediator production by PMA | 38.1 | suppress croton oil-induced mouse ear swelling reaction | activity at 1 % [1, 4]: 71%; activity at 1 % [1, 5]: 81%; activity at 1 % [1, 6]: 111%; activity at 1 % [1, 7]: 20% |
| CCCCCCCCCCCC(=O)N(CCO)CCO [LADA, lauric acid diethanolamide] |  |  |  |  |  |  |  | Production Amount of Skin Irritation Mediator: IL-1α ([3]; LADA 0.03% in olive oil): 29.85 pg/mL; Production Amount of Skin Irritation Mediator: IL-6 ([3]; LADA 0.03% in olive oil): 0.00 pg/mL; Production Amount of Skin Irritation Mediator: IL-8 ([3]; LADA 0.03% in olive oil): 160.29 pg/mL; Production Amount of Skin Irritation Mediator: PGE2 ([3]; LADA 0.03% in olive oil): 30.64 pg/mL; Production Amount of Skin Irritation Mediator: TNFα ([3]; LADA 0.03% in olive oil): 0.00 pg/mL |
